Results reported in US11453640B2, “Small molecules for disrupting the super elongation complex and inhibiting transcription elongation for cancer therapy” (NORTHWESTERN UNIVERSITY, priority 2018, dated 2022).

Test system: heat shock inducible genes in HCT-116 cells
Assay: Heat shock induction in HCT-116 cells (Pol II ChIP-seq)
Type: cell-based, human
Conditions: 5 hr pretreatment, 42° C. 1 hr
Protocol: FIG. 5. SEC inhibitors block transcription elongation in SEC-dependent rapid response models. (A-B) Genome browser tracks of Pol II ChIP-seq at the FOS, HSPD1 and HSPE1 genes after 1 hr heat shock of HCT-116 cells treated with vehicle (DMSO) or the indicated SEC inhibitors. HCT-116 cells were pretreated with inhibitors for 5 hr at 37° C. before exchanging medium with conditioned 42° C. medium. Dark and light colors indicate the 37 and 42° C. conditions, respectively. (C) Genome-wide identification of heat shock-induced genes with fold change of reads per million in gene bodies and pausing index. Red dots are the 136 heat shock-induced genes according to Pol II signals (fold change of reads per million in gene bodies >1.5 and pausing index decreased >1.5-fold in the DMSO-treated condition). […] Box plot analysis depicts the log2 fold changes of reads per million in gene bodies (E) (y axis) after heat shock with pretreatment of vehicle or SEC inhibitors. […]
Chromatin Immunoprecipitation Sequencing. […] ChIP-seq reads were aligned to the Drosophila genome (UCSC dm3) or human genome (UCSC hgl9). Alignments were processed with Bowtie version 1.1.2, allowing only uniquely mapping reads with up to two mismatches within the 50 bp read. The resulting reads were extended to 150 bp toward the interior of the sequenced fragment and normalized to total reads aligned (reads per million, r.p.m.). […]

## COc1cccc(C(=O)CC(=O)C(=O)Nc2cc(Cl)ccc2C)c1 [KL-1, N-(5-chloro-2-methylphenyl)-4-oxo-4-(3-methoxyphenyl)-2-oxobutanamide]
  induction of heat shock inducible genes: block induction of known heat shock inducible genes
